Source: patent US12435060B2, “Acylamino bridged heterocyclic compound, and composition and application thereof” (BEIJING SCITECH-MQ PHARMACEUTICALS LIMITED, priority 2019, dated 2025)

Tested on: HT29 cells
Assay: Inhibition of cell necrosis (CCK8 method), induced programmed necrosis of HT29 cells
Format: cell-based
Conditions: Homo sapiens, HT-29; rescue from necrosis induced by TNF-α 20 ng/mL, AT-406 1 μM, Z-VAD-FMK 20 μM; 16-20 hours; CCK-8, OD 450 nm
How it was run: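 Rescue from programmed necrosis was scored by CCK-8 absorbance at 450 nm after 16-20 h of TNF-α (20 ng/mL), AT-406 (1 μM) and Z-VAD-FMK (20 μM) at 37 °C, 5% CO2. HT29 cells had received compound 30 min earlier across nine 4-fold dilutions (top 25000 nM final). IC50 came from % inhibition relative to uninduced and induced-only wells.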

Row | Structure (SMILES) | IC50 [nM]
1 | CCC(O)(CC)CCCOc1ccc(C(F)(F)F)c(-c2ccnc(NC(=O)c3nnc(CC4CCCCC4)[nH]3)c2)c1 [Example 263, 5-(cyclohexylmethyl)-N-(4-(5-((4-ethyl-4-hydroxyhexyl)oxy)-2-(trifluoromethyl)phenyl)pyridin-2-yl)-4H-1,2,4-triazole-3-carboxamide] | ≤ 100
2 | CC(C)(O)COc1ccc(C(F)(F)F)c(-c2ccnc(NC(=O)c3nnc(Cc4ccccc4)[nH]3)c2)c1 [Example 264, 5-benzyl-N-(4-(5-(2-hydroxyl-2-methylpropoxy)-2-(trifluoromethyl)phenyl)pyridin-2-yl)-4H-1,2,4-triazole-3-carboxamide] | ≤ 100
3 | CC(C)(O)COc1ccc(C(F)(F)F)c(-c2ccnc(NC(=O)c3nnc(Cc4ccccc4F)[nH]3)c2)c1 [Example 265, 5-(2-fluorobenzyl)-N-(4-(5-(2-hydroxyl-2-methylpropoxy)-2-(trifluoromethyl)phenyl)pyridin-2-yl)-4H-1,2,4-triazole-3-carboxamide] | 100 to 1000
4 | CC(C)(O)COc1ccc(C(F)(F)F)c(-c2ccnc(NC(=O)c3nnc(CC4CCCC4)[nH]3)c2)c1 [Example 266, 5-(cyclopentylmethyl)-N-(4-(5-(2-hydroxyl-2-methylpropoxy)-2-(trifluoromethyl)phenyl)pyridin-2-yl)-4H-1,2,4-triazole-3-carboxamide] | ≤ 100
5 | CC(C)(O)COc1ccc(C(F)(F)F)c(-c2ccnc(NC(=O)c3nnc(CC4CCCCC4)[nH]3)c2)c1 [Example 267, 5-(cyclohexylmethyl)-N-(4-(5-(2-hydroxyl-2-methylpropoxy)-2-(trifluoromethyl)phenyl)pyridin-2-yl)-4H-1,2,4-triazole-3-carboxamide] | ≤ 100
6 | CC(C)(O)CCCCOc1ccc(C(F)(F)F)c(-c2ccnc(NC(=O)c3nnc(Cc4ccccc4)[nH]3)c2)c1 [Example 268, 5-benzyl-N-(4-(5-((5-hydroxyl-5-methylhexyl)oxy)-2-(trifluoromethyl)phenyl)pyridin-2-yl)-4H-1,2,4-triazole-3-carboxamide] | ≤ 100
7 | CC(C)(O)CCCCOc1ccc(C(F)(F)F)c(-c2ccnc(NC(=O)c3nnc(Cc4ccccc4F)[nH]3)c2)c1 [Example 269, 5-(2-fluorobenzyl)-N-(4-(5-((5-hydroxyl-5-methylhexyl)oxy)-2-(trifluoromethyl)phenyl)pyridin-2-yl)-4H-1,2,4-triazole-3-carboxamide] | ≤ 100
8 | CC(C)(O)CCCCOc1ccc(C(F)(F)F)c(-c2ccnc(NC(=O)c3nnc(CC4CCCC4)[nH]3)c2)c1 [Example 270, 5-(cyclopentylmethyl)-N-(4-(5-((5-hydroxyl-5-methylhexyl)oxy)-2-(trifluoromethyl)phenyl)pyridin-2-yl)-4H-1,2,4-triazole-3-carboxamide] | ≤ 100
9 | CC(C)(O)CCCCOc1ccc(C(F)(F)F)c(-c2ccnc(NC(=O)c3nnc(CC4CCCCC4)[nH]3)c2)c1 [Example 271, 5-(cyclohexylmethyl)-N-(4-(5-((5-hydroxyl-5-methylhexyl)oxy)-2-(trifluoromethyl)phenyl)pyridin-2-yl)-4H-1,2,4-triazole-3-carboxamide] | ≤ 100
10 | O=C(Nc1cc(-c2cc(OCCCCO)ccc2C(F)(F)F)ccn1)c1nnc(Cc2ccccc2)[nH]1 [Example 272, 5-benzyl-N-(4-(5-(4-hydroxybutoxy)-2-(trifluoromethyl)phenyl)pyridin-2-yl)-4H-1,2,4-triazole-3-carboxamide] | ≤ 100
11 | O=C(Nc1cc(-c2cc(OCCCCO)ccc2C(F)(F)F)ccn1)c1nnc(Cc2ccccc2F)[nH]1 [Example 273, 5-(2-fluorobenzyl)-N-(4-(5-(4-hydroxybutoxy)-2-(trifluoromethyl)phenyl)pyridin-2-yl)-4H-1,2,4-triazole-3-carboxamide] | ≤ 100
12 | O=C(Nc1cc(-c2cc(OCCCCO)ccc2C(F)(F)F)ccn1)c1nnc(CC2CCCC2)[nH]1 [Example 274, 5-(cyclopentylmethyl)-N-(4-(5-(4-hydroxybutoxy)-2-(trifluoromethyl)phenyl)pyridin-2-yl)-4H-1,2,4-triazole-3-carboxamide] | ≤ 100
13 | O=C(Nc1cc(-c2cc(OCCCCCO)ccc2C(F)(F)F)ccn1)c1nnc(Cc2ccccc2)[nH]1 [Example 275, 5-benzyl-N-(4-(5-((5-hydroxypentyl)oxy)-2-(trifluoromethyl)phenyl)pyridin-2-yl)-4H-1,2,4-triazole-3-carboxamide] | ≤ 100
14 | O=C(Nc1cc(-c2cc(OCCCCCO)ccc2C(F)(F)F)ccn1)c1nnc(Cc2ccccc2F)[nH]1 [Example 276, 5-(2-fluorobenzyl)-N-(4-(5-((5-hydroxypentyl)oxy)-2-(trifluoromethyl)phenyl)pyridin-2-yl)-4H-1,2,4-triazole-3-carboxamide] | ≤ 100
15 | O=C(Nc1cc(-c2cc(OCCCCCO)ccc2C(F)(F)F)ccn1)c1nnc(CC2CCCC2)[nH]1 [Example 277, 5-(cyclopentylmethyl)-N-(4-(5-((5-hydroxypentyl)oxy)-2-(trifluoromethyl)phenyl)pyridin-2-yl)-4H-1,2,4-triazole-3-carboxamide] | ≤ 100
16 | O=C(Nc1cc(-c2cc(OCCCCCO)ccc2C(F)(F)F)ccn1)c1nnc(CC2CCCCC2)[nH]1 [Example 278, 5-(cyclohexylmethyl)-N-(4-(5-((5-hydroxypentyl)oxy)-2-(trifluoromethyl)phenyl)pyridin-2-yl)-4H-1,2,4-triazole-3-carboxamide] | ≤ 100
17 | COCCOc1ccc(C(F)(F)F)c(-c2ccnc(NC(=O)c3nnc(Cc4ccccc4)[nH]3)c2)c1 [Example 279, 5-benzyl-N-(4-(5-(2-methoxyethoxy)-2-(trifluoromethyl)phenyl)pyridin-2-yl)-4H-1,2,4-triazole-3-carboxamide] | ≤ 100
18 | COCCOc1ccc(C(F)(F)F)c(-c2ccnc(NC(=O)c3nnc(Cc4ccccc4F)[nH]3)c2)c1 [Example 280, 5-(2-fluorobenzyl)-N-(4-(5-(2-methoxyethoxy)-2-(trifluoromethyl)phenyl)pyridin-2-yl)-4H-1,2,4-triazole-3-carboxamide] | ≤ 100
19 | COCCOc1ccc(C(F)(F)F)c(-c2ccnc(NC(=O)c3nnc(CC4CCCC4)[nH]3)c2)c1 [Example 281, 5-(cyclopentylmethyl)-N-(4-(5-(2-methoxyethoxy)-2-(trifluoromethyl)phenyl)pyridin-2-yl)-4H-1,2,4-triazole-3-carboxamide] | ≤ 100
20 | COCCOc1ccc(C(F)(F)F)c(-c2ccnc(NC(=O)c3nnc(CC4CCCCC4)[nH]3)c2)c1 [Example 282, 5-(cyclohexylmethyl)-N-(4-(5-(2-methoxyethoxy)-2-(trifluoromethyl)phenyl)pyridin-2-yl)-4H-1,2,4-triazole-3-carboxamide] | ≤ 100
21 | CCOCCOc1ccc(C(F)(F)F)c(-c2ccnc(NC(=O)c3nnc(Cc4ccccc4)[nH]3)c2)c1 [Example 283, 5-benzyl-N-(4-(5-(2-ethoxyethoxy)-2-(trifluoromethyl)phenyl)pyridin-2-yl)-4H-1,2,4-triazole-3-carboxamide] | ≤ 100
22 | CCOCCOc1ccc(C(F)(F)F)c(-c2ccnc(NC(=O)c3nnc(Cc4ccccc4F)[nH]3)c2)c1 [Example 284, 5-(2-fluorobenzyl)-N-(4-(5-(2-ethoxyethoxy)-2-(trifluoromethyl)phenyl)pyridin-2-yl)-4H-1,2,4-triazole-3-carboxamide] | ≤ 100
23 | CCOCCOc1ccc(C(F)(F)F)c(-c2ccnc(NC(=O)c3nnc(CC4CCCC4)[nH]3)c2)c1 [Example 285, 5-(cyclopentylmethyl)-N-(4-(5-(2-ethoxyethoxy)-2-(trifluoromethyl)phenyl)pyridin-2-yl)-4H-1,2,4-triazole-3-carboxamide] | ≤ 100
24 | CCOCCOc1ccc(C(F)(F)F)c(-c2ccnc(NC(=O)c3nnc(CC4CCCCC4)[nH]3)c2)c1 [Example 286, 5-(cyclohexylmethyl)-N-(4-(5-(2-ethoxyethoxy)-2-(trifluoromethyl)phenyl)pyridin-2-yl)-4H-1,2,4-triazole-3-carboxamide] | ≤ 100
25 | CC(C)OCCOc1ccc(C(F)(F)F)c(-c2ccnc(NC(=O)c3nnc(Cc4ccccc4)[nH]3)c2)c1 [Example 287, 5-benzyl-N-(4-(5-(2-isopropoxyethoxy)-2-(trifluoromethyl)phenyl)pyridin-2-yl)-4H-1,2,4-triazole-3-carboxamide] | ≤ 100
26 | CC(C)OCCOc1ccc(C(F)(F)F)c(-c2ccnc(NC(=O)c3nnc(Cc4ccccc4F)[nH]3)c2)c1 [Example 288, 5-(2-fluorobenzyl)-N-(4-(5-(2-isopropoxyethoxy)-2-(trifluoromethyl)phenyl)pyridin-2-yl)-4H-1,2,4-triazole-3-carboxamide] | ≤ 100
27 | CC(C)OCCOc1ccc(C(F)(F)F)c(-c2ccnc(NC(=O)c3nnc(CC4CCCC4)[nH]3)c2)c1 [Example 289, 5-(cyclopentylmethyl)-N-(4-(5-(2-isopropoxyethoxy)-2-(trifluoromethyl)phenyl)pyridin-2-yl)-4H-1,2,4-triazole-3-carboxamide] | ≤ 100
28 | CC(C)OCCOc1ccc(C(F)(F)F)c(-c2ccnc(NC(=O)c3nnc(CC4CCCCC4)[nH]3)c2)c1 [Example 290, 5-(cyclohexylmethyl)-N-(4-(5-(2-isopropoxyethoxy)-2-(trifluoromethyl)phenyl)pyridin-2-yl)-4H-1,2,4-triazole-3-carboxamide] | ≤ 100
29 | CC(C)(C)OCCOc1ccc(C(F)(F)F)c(-c2ccnc(NC(=O)c3nnc(Cc4ccccc4)[nH]3)c2)c1 [Example 291, 5-benzyl-N-(4-(5-(2-(tert-butoxy)ethoxy)-2-(trifluoromethyl)phenyl)pyridin-2-yl)-4H-1,2,4-triazole-3-carboxamide] | ≤ 100
30 | CC(C)(C)OCCOc1ccc(C(F)(F)F)c(-c2ccnc(NC(=O)c3nnc(Cc4ccccc4F)[nH]3)c2)c1 [Example 292, 5-(2-fluorobenzyl)-N-(4-(5-(2-(tert-butoxy)ethoxy)-2-(trifluoromethyl)phenyl)pyridin-2-yl)-4H-1,2,4-triazole-3-carboxamide] | ≤ 100
